Reference: patent US6500669B1, “Programmable genotoxic agents and uses therefor” (Massachusetts Institute of Technology, priority 1994, dated 2002)
Where two headings read alike, the source gives them in different places.

Key:
estrogen receptor (ER) [1] = biological target: T1, estrogen receptor (ER) (Bos taurus, UniProt P49884); assay type: binding, calf
T1 construct: uterine cytosol was prepared by homogenizing calf uteri; from tissue; host or cells: calf uterus, cytosol (105,000 g supernatant)
T1 sequence (P49884 1-596): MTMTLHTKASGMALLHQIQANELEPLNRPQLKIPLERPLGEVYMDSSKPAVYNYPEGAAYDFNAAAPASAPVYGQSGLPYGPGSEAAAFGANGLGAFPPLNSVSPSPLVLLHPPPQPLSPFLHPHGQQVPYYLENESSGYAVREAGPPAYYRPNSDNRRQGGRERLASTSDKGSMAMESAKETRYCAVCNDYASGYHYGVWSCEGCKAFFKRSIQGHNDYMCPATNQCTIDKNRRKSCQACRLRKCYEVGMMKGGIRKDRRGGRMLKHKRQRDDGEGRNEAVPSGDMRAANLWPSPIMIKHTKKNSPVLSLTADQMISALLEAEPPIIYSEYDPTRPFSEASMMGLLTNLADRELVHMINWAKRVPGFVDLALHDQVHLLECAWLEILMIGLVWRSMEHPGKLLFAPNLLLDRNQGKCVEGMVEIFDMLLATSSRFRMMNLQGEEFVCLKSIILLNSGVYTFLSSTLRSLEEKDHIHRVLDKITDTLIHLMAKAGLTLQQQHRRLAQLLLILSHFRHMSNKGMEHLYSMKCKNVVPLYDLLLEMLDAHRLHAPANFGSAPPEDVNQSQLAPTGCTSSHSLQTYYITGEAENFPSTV

estrogen receptor (ER) [2] = biological target: T1, estrogen receptor (ER); test: In vitro [3H]E2 competition assay, calf uterine extracts, free compounds; assay type: binding; details: free compound
Experimental: Assays were performed by premixing a range of concentrations of the test compound with a fixed amount of tritium labeled estradiol ([^3H]E2). Calf uterine cytosol was then added. After incubation overnight at 4° C., activated charcoal/dextran was added to remove unbound [^3H]E2. Following centrifugation to remove the charcoal/dextran, levels of bound (i.e., non-competed) [^3H]E2 were determined by liquid scintillation spectrometry. Low concentrations of test compound required to abolish [^3H]E2 binding in this assay indicate a tight association between the test compound and the ER.

[3] = test system: HeLa 36 (ER+) and HeLa 7 (ER-) cells; test: Methylene blue dye binding toxicity assay in HeLa ER transformants
[4] = test system: MCF-7 and MDA-MB-231 cells; test: Methylene blue dye binding growth assay in breast tumor cell lines; assay type: cell-based, human; details: ED50 = concentration that inhibits cell growth by 50%
Experimental: The toxicities of the preferred 2-phenylindole-C6NC2-mustard and homologous ligand decoy compounds for selected cells distinguished phenotypically from nonselected cells by expression of ER were tested using the human breast tumor cell lines, MCF-7 and MDA-MB-231, according to the guidelines set forth in Example 10 (above). The MCF-7 cell line expresses the estrogen receptor protein, while no ER protein can be detected in the MDA-MB-231 cell line.
Both cell lines were routinely cultured in Minimal Essential Medium (MEM) supplemented with 2 mM gluatamine, 1 mM sodium pyruvate and 10% fetal calf serum. To determine the toxicity of test compounds, cells were trypsinized and plated in 100 μl of media in 96-well microtiter plates at the following densities: MCF-7, 2000 cells/well; MDA-MB-231, 1000 cells/well. Cells were allowed to grow for 24 hours in the 96-well plates prior to treatment with the compounds. […]
Each treatment condition was conducted in replicates of 8 wells. […] On day 4, cell growth in treated and control cultures was determined using the methylene blue dye binding assay.
A dye-binding assay as described by Finlay et al. (1984), 139 Anal. Biochem. 272 was used to assess the cytotoxic effects of 2-phenylindole-C6NC2-mustard and homologous ligand decoy compounds. […] The absorbance of the solubilized dye was read at 620 nm in a Ceres 9000 plate reader (Biotek).

hUBF = biological target: T2, hUBF (Homo sapiens, UniProt P17480); test: Southwestern blotting of hUBF with platinated DNA probes; assay type: binding; details: southwestern and western blot; DNA globally modified by the platinum compound
T2 construct: made in house; host or cells: in vitro transcription and translation (cell-free) from plasmid pTbGUBF1
T2 sequence (P17480 1-764): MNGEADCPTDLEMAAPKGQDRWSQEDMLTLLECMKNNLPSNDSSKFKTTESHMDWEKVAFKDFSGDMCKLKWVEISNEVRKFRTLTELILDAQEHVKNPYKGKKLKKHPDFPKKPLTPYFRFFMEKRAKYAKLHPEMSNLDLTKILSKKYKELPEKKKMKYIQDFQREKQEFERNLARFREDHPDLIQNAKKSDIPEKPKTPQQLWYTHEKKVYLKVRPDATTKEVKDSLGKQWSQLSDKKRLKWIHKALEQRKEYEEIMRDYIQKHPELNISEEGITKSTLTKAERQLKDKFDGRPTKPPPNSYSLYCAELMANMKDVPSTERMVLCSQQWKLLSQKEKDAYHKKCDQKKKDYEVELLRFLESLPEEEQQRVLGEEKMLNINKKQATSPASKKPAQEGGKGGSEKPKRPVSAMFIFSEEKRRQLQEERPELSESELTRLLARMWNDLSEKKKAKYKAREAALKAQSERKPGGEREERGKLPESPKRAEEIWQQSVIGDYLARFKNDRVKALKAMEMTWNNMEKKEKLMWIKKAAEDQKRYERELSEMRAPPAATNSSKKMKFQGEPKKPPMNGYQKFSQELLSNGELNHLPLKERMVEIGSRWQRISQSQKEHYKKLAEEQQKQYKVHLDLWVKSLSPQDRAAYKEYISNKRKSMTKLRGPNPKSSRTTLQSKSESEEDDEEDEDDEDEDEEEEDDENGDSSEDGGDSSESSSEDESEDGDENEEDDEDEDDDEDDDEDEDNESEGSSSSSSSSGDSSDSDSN
Experimental: Probe Preparation. The DNA probe used for southwestern blotting was a 422 base pair (bp) AvaI restriction fragment excised from M13mp19 replicative form DNA. Platinated probes were prepared by treating the AvaI-digested DNA with cisplatin or trans-DDP, and the formal bound drug/nucleotide ratios (rb) were determined by using atomic absorption spectroscopy as described in Donahue et al. (1990), 29 Biochemistry 5872-5880.
Western and Southwestern Blotting Technique. HeLa whole cell extracts (WCE) were prepared by the sonication procedure of Samson et al. (1986), 83 Proc. Natl. Acad. Sci. U.S.A. 5607-5610. The 97 kDa hUBF species was synthesized by in vitro transcription and translation from the plasmid pTbGUBF1 as reported in Jantzen et al. (1992), 6 Genes & Dev. 1950-1963. In vitro translated hUBF was quantitated by the incorporation of ^35S-methionine. Protein samples ([…] WCE or 8 ng hUBF) were resolved on 5-15% gradient SDS polyacrylamide gels and transferred to nitrocellulose membranes. Parallel blots of HeLa whole cell extracts (WCE) and in vitro translated hUBF (hUBF) were probed with various ^32P labeled DNA fragments (southwestern analysis, panels A-C of FIG. 2) or antiserum against hUBF (Anti-NOR-90) (panel D of FIG. 2). For southwestern analysis, the air dried membranes were processed as reported in Toney et al. (1989), 86 Proc. Natl. Acad. Sci. U.S.A. 8328-8332. […]

Structure (SMILES): O=C(O)CCCc1ccc(N(CCCl)CCCl)cc1 [chlorambucil, reference compound]
- affinity of DNA lesions formed by the compound for ER (estrogen receptor (ER) [1]; isolated DNA lesioned with compound, competition with E2): no affinity

Structure (SMILES): O=C(NCCCc1ccc(N(CCCl)CCCl)cc1)OCCNCCCCCCn1c(-c2ccc(O)cc2)cc2cc(O)ccc21 [2-phenylindole-C6NC2-mustard]
- affinity for the ER relative to estradiol (E2) (estrogen receptor (ER) [2]; calf uterine cytosol): ≤ 20 fold
- affinity for the ER (in words) (estrogen receptor (ER) [2]; competition with [3H]E2): highest affinity
- affinity of DNA lesions formed by the compound for ER (estrogen receptor (ER) [1]): compete effectively
- differential in toxicity between HeLa 36 and HeLa 7 ([3]; 4 hr. exposure, 2.5 μM dose): approximately a two-fold differential
- cytotoxicity in HeLa 36 cells relative to HeLa 7 cells ([3]; 4 hr. exposure, 5 μM dose): four- to five-fold greater cytotoxicity
- effect in HeLa 36 cells relative to HeLa 7 cells ([3]; 4 day exposure): selectively toxic and growth inhibitory effect
- ED50 in MCF-7 relative to ED50 in MDA-MB-231 [4]: two- to three-fold lower

Structure (SMILES): N.N.[Cl][Pt][Cl] [cisplatin, cis-diamminedichloro-platinum(II)]
- binding of in vitro translated hUBF to drug-modified DNA (hUBF): bound

Structure (SMILES): N.N.[Cl][Pt][Cl] [trans-DDP, trans-Diamminedichloroplatinum (II)]
- binding of in vitro translated hUBF to drug-modified DNA (hUBF): failed to recognize
